According to publication PMC4336331, “Novel Receptor-Derived Cyclopeptides to Treat Heart Failure Caused by Anti-β1-Adrenoceptor Antibodies in a Human-Analogous Rat Model” (PLoS ONE, 2015):
Peptide text beside a SMILES is read from it.

What was measured:
[1] = Plasma half-life in vivo of 123I-(tyrosine)-labeled peptides; conditions: 123I-(tyrosine)-labeled peptide, 1.4 to 1.8 MBq/animal injected; central venous blood samples gamma-counted 2, 4, 6, 8, 10, 20, 30, 60 min after injection; difference n.s.
[2] = Half-life of β1EC2-peptides in rat whole blood ex vivo; conditions: for Half-life in whole blood, in words: ex vivo incubation experiments with whole blood (Fig. 1G); for half-life: rat, whole blood
[3] = test system: IL1-β, TGF-β1 transcripts; test: qRT-PCR of cardiac profibrotic markers, therapy-study; assay type: in vivo, Lewis/CrlBR rats; conditions: qRT-PCR of apical cardiac tissues, normalised to controls (Fig. 3D)
Protocol: Total RNA was isolated from frozen myocardium by RNeasy mini Kit (Qiagen, Hilden, Germany). Reverse transcription of total RNA isolated from frozen myocardium was performed in 96-well plates utilising a high capacity RNA-to-cDNA master mix (Applied Biosystems, Foster City, CA). PCR reactions were conducted in the presence of the fluorescent dye Sybr-Green (Cambrex BioScience, East Rutherford, NY) and the reference-dye 6-carboxy-X-rhodamine (ROX) using an ABI PRISM sequence detection system 7700 (Applied Biosystems). All amplification products were controlled for specificity by running a melting curve analysis; results were calculated using the 2^-ΔΔCT method. The relative expression levels were derived from a standard curve and normalised to GAPDH as an endogenous control. Quantitative real-time PCR (qRT-PCR) analyses are presented as fold change compared to untreated (0.9% NaCl-injected) control hearts. […]
Fig 3 Histology of rat hearts (therapy-study). […] (B) Quantification of fibrotic scars in midventricular 2μm-sections (mvhs, mid-ventricular heart-section). […] For all parameters shown, differences between the treatment-groups were assessed by […] one way ANOVA and Dunnett`s post-hoc test; *p<0.05; **p<0.001.

β1-AR mRNA = test: qRT-PCR of cardiac β1-AR mRNA, therapy-study; assay type: in vivo, Lewis/CrlBR rats; conditions: qRT-PCR normalised to GAPDH (Fig. 4C)
Description: (C) Molecular analysis of hearts (apical segments) from treated anti-β1EC2-positive rats and corresponding control animals in the therapy-study.

SMILES	plasma-half life in vivo (t ½) [1] [min]	Half-life in whole blood, in words [2]	half-life [2] [days]	reduction of the increases in cardiac transcripts of profibrotic markers (IL1-β, TGF-β1) [3] [%]	cardiac β1-AR mRNA-levels, in words (β1-AR mRNA)
CC(C)[C@H](NC(=O)[C@H](Cc1ccccc1)NC(=O)[C@H](CC(=O)O)NC(=O)[C@H](CS)NC(=O)[C@H](CS)NC(=O)[C@H](CCCCN)NC(=O)[C@@H]1CCCN1C(=O)[C@H](CC(=O)O)NC(=O)[C@H](CC(N)=O)NC(=O)[C@H](Cc1ccc(O)cc1)NC(=O)[C@H](CS)NC(=O)[C@H](CCCNC(=N)N)NC(=O)[C@H](CCCNC(=N)N)NC(=O)[C@H](C)NC(=O)[C@H](CCC(=O)O)NC(=O)[C@H](CC(=O)O)NC(=O)[C@H](CO)NC(=O)[C@H](CCC(=O)O)NC(=O)[C@H](C)NC(=O)[C@H](CCCNC(=N)N)NC(=O)[C@H](C)N)C(=O)N[C@H](C(=O)N[C@@H](CC(N)=O)C(=O)N[C@@H](CCCNC(=N)N)C(=O)NCC(N)=O)[C@@H](C)O [β1EC2-Lin] (H-ARAESDEARRCYNDPKCCDFVTNRG-NH2; N-terminus and C-terminus assumed)	3.9 ± 2.2	hours	0.167	–	–
CC(C)[C@@H]1NC(=O)[C@H](Cc2ccccc2)NC(=O)[C@H](CC(=O)O)NC(=O)[C@H](CS)NC(=O)[C@H](CS)NC(=O)[C@H](CCCCN)NC(=O)[C@@H]2CCCN2C(=O)[C@H](CC(=O)O)NC(=O)[C@H](CC(N)=O)NC(=O)[C@H](Cc2ccc(O)cc2)NC(=O)[C@H](CS)NC(=O)[C@H](CCCNC(=N)N)NC(=O)[C@H](CCCNC(=N)N)NC(=O)[C@H](C)NC(=O)[C@H](CCC(=O)O)NC(=O)[C@H](CC(=O)O)NC(=O)[C@H](CO)NC(=O)[C@H](CCC(=O)O)NC(=O)[C@H](C)NC(=O)[C@H](CCCNC(=N)N)NC(=O)[C@H](C)NC(=O)[C@H](CCC(N)=O)NC(=O)CNC(=O)[C@H](CCCNC(=N)N)NC(=O)[C@H](CC(N)=O)NC(=O)[C@H]([C@@H](C)O)NC1=O [β1EC2-CP] (cyclo(AESDEARRCYNDPKCCDFVTNRGQAR))	8.1 ± 2.8	days	20.2	~50	returned to normal levels
CC(C)NCC(O)COc1ccc(COCCOC(C)C)cc1 (stereo not shown) [bisoprolol, reference compound]	–	–	–	~50	returned to normal levels
